Measured values as given in PubChem BioAssay (NCI).
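Grown in 96-well plates, cells were treated for 48 hours with each compound at five concentrations. Insufficient inhibition: endpoint recorded as highest concentration tested. TGI denotes the concentration required for complete inhibition of growth.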

How the values were obtained:
Test in all cases: NCI-60 cell line screen, 48 h
T-47D breast = system: T-47D breast
OVCAR-5 ovarian = system: OVCAR-5 ovarian
COLO 205 colon = system: COLO 205 colon
UACC-62 melanoma = system: UACC-62 melanoma
SF-295 CNS = system: SF-295 CNS
HL-60(TB) leukemia = system: HL-60(TB) leukemia
A498 renal = system: A498 renal
SK-MEL-2 melanoma = system: SK-MEL-2 melanoma
MALME-3M melanoma = system: MALME-3M melanoma
NCI-H226 lung = system: NCI-H226 lung
SK-OV-3 ovarian = system: SK-OV-3 ovarian
HOP-62 NSCLC = system: HOP-62 NSCLC
HOP-92 NSCLC = system: HOP-92 NSCLC
UACC-257 melanoma = system: UACC-257 melanoma
EKVX NSCLC = system: EKVX NSCLC
M14 melanoma = system: M14 melanoma
NCI-H460 lung = system: NCI-H460 lung
SK-MEL-5 melanoma = system: SK-MEL-5 melanoma
MCF7 breast = system: MCF7 breast
HT29 colon = system: HT29 colon
OVCAR-8 ovarian = system: OVCAR-8 ovarian
DU-145 prostate = system: DU-145 prostate
MDA-MB-231 breast = system: MDA-MB-231 breast
HCT-15 colon = system: HCT-15 colon
MDA-N = system: MDA-N
ACHN renal = system: ACHN renal
SN12C renal = system: SN12C renal
SF-539 CNS = system: SF-539 CNS
PC-3 prostate = system: PC-3 prostate
K-562 leukemia = system: K-562 leukemia
TK-10 renal = system: TK-10 renal
HCC-2998 colon = system: HCC-2998 colon
UO-31 renal = system: UO-31 renal
CAKI-1 renal = system: CAKI-1 renal
OVCAR-4 ovarian = system: OVCAR-4 ovarian
RPMI-8226 leukemia = system: RPMI-8226 leukemia
NCI/ADR-RES ovarian = system: NCI/ADR-RES ovarian
786-0 renal = system: 786-0 renal
SNB-19 CNS = system: SNB-19 CNS
BT-549 breast = system: BT-549 breast
IGROV1 ovarian = system: IGROV1 ovarian
CCRF-CEM leukemia = system: CCRF-CEM leukemia
NCI-H23 lung = system: NCI-H23 lung
SW-620 colon = system: SW-620 colon
SNB-75 CNS = system: SNB-75 CNS
MOLT-4 leukemia = system: MOLT-4 leukemia
SR leukemia = system: SR leukemia
SK-MEL-28 melanoma = system: SK-MEL-28 melanoma
LOX IMVI melanoma = system: LOX IMVI melanoma
A549 NSCLC = system: A549 NSCLC
KM12 colon = system: KM12 colon
OVCAR-3 ovarian = system: OVCAR-3 ovarian
U251 CNS = system: U251 CNS
MDA-MB-435 = system: MDA-MB-435
HCT-116 colon = system: HCT-116 colon
RXF 393 renal = system: RXF 393 renal
NCI-H522 lung = system: NCI-H522 lung
SF-268 CNS = system: SF-268 CNS
HS 578T breast = system: HS 578T breast

COc1ccc(NC(C)=O)cc1N1C(=O)/C(=C\c2cc(OC)c(OC)c(OC)c2)S(=O)(=O)C1c1ccccc1 (stereo not given)
TGI (T-47D breast): > 100 µM
TGI (OVCAR-5 ovarian): > 100 µM
TGI (COLO 205 colon): > 100 µM
TGI (UACC-62 melanoma): > 100 µM
TGI (SF-295 CNS): > 100 µM
TGI (HL-60(TB) leukemia): 43 µM
TGI (A498 renal): > 100 µM
TGI (SK-MEL-2 melanoma): > 100 µM
TGI (MALME-3M melanoma): > 100 µM
TGI (NCI-H226 lung): > 100 µM
TGI (SK-OV-3 ovarian): > 100 µM
TGI (HOP-62 NSCLC): > 100 µM
TGI (HOP-92 NSCLC): > 100 µM
TGI (UACC-257 melanoma): > 100 µM
TGI (EKVX NSCLC): > 100 µM
TGI (M14 melanoma): > 100 µM
TGI (NCI-H460 lung): > 100 µM
TGI (SK-MEL-5 melanoma): > 100 µM
TGI (MCF7 breast): > 100 µM
TGI (HT29 colon): > 100 µM
TGI (OVCAR-8 ovarian): > 100 µM
TGI (DU-145 prostate): > 100 µM
TGI (MDA-MB-231 breast): > 100 µM
TGI (HCT-15 colon): > 100 µM
TGI (MDA-N): > 100 µM
TGI (ACHN renal): > 100 µM
TGI (SN12C renal): > 100 µM
TGI (SF-539 CNS): > 100 µM
TGI (PC-3 prostate): > 100 µM
TGI (K-562 leukemia): > 100 µM
TGI (TK-10 renal): > 100 µM
TGI (HCC-2998 colon): > 100 µM
TGI (UO-31 renal): > 100 µM
TGI (CAKI-1 renal): > 100 µM
TGI (OVCAR-4 ovarian): > 100 µM
TGI (RPMI-8226 leukemia): > 100 µM
TGI (NCI/ADR-RES ovarian): > 100 µM
TGI (786-0 renal): > 100 µM
TGI (SNB-19 CNS): > 100 µM
TGI (BT-549 breast): > 100 µM
TGI (IGROV1 ovarian): > 100 µM
TGI (CCRF-CEM leukemia): > 100 µM
TGI (NCI-H23 lung): > 100 µM
TGI (SW-620 colon): > 100 µM
TGI (SNB-75 CNS): > 100 µM
TGI (MOLT-4 leukemia): > 100 µM
TGI (SR leukemia): > 100 µM
TGI (SK-MEL-28 melanoma): > 100 µM
TGI (LOX IMVI melanoma): > 100 µM
TGI (A549 NSCLC): > 100 µM
TGI (KM12 colon): > 100 µM
TGI (OVCAR-3 ovarian): > 100 µM
TGI (U251 CNS): > 100 µM
TGI (MDA-MB-435): > 100 µM
TGI (HCT-116 colon): > 100 µM
TGI (RXF 393 renal): > 100 µM
TGI (NCI-H522 lung): > 100 µM

O=C(Nc1ccccc1)C(=O)C(C(=O)c1ccccc1)C(c1ccccc1)c1ccccc1 (stereo not given)
TGI (T-47D breast): > 10 µM
TGI (COLO 205 colon): > 10 µM
TGI (UACC-62 melanoma): > 10 µM
TGI (SF-295 CNS): > 10 µM
TGI (HL-60(TB) leukemia): > 10 µM
TGI (MALME-3M melanoma): > 10 µM
TGI (SK-OV-3 ovarian): > 10 µM
TGI (HOP-62 NSCLC): > 10 µM
TGI (HOP-92 NSCLC): > 10 µM
TGI (UACC-257 melanoma): > 10 µM
TGI (EKVX NSCLC): > 10 µM
TGI (M14 melanoma): > 10 µM
TGI (SK-MEL-5 melanoma): > 10 µM
TGI (MCF7 breast): > 10 µM
TGI (HT29 colon): > 10 µM
TGI (OVCAR-8 ovarian): > 10 µM
TGI (DU-145 prostate): > 10 µM
TGI (MDA-MB-231 breast): > 10 µM
TGI (HCT-15 colon): > 10 µM
TGI (MDA-N): > 10 µM
TGI (SN12C renal): > 10 µM
TGI (PC-3 prostate): > 10 µM
TGI (K-562 leukemia): > 10 µM
TGI (TK-10 renal): > 10 µM
TGI (HCC-2998 colon): > 10 µM
TGI (CAKI-1 renal): > 10 µM
TGI (OVCAR-4 ovarian): > 10 µM
TGI (RPMI-8226 leukemia): > 10 µM
TGI (786-0 renal): > 10 µM
TGI (IGROV1 ovarian): > 10 µM
TGI (CCRF-CEM leukemia): > 10 µM
TGI (NCI-H23 lung): > 10 µM
TGI (SW-620 colon): > 10 µM
TGI (SNB-75 CNS): > 10 µM
TGI (MOLT-4 leukemia): > 10 µM
TGI (SR leukemia): > 10 µM
TGI (SK-MEL-28 melanoma): > 10 µM
TGI (LOX IMVI melanoma): > 10 µM
TGI (A549 NSCLC): > 10 µM
TGI (SF-268 CNS): > 10 µM
TGI (MDA-MB-435): > 10 µM
TGI (RXF 393 renal): > 10 µM

O=S1(=O)OCCCOS(=O)(=O)C1Br
TGI (T-47D breast): > 100 µM
TGI (OVCAR-5 ovarian): > 100 µM
TGI (COLO 205 colon): > 100 µM
TGI (UACC-62 melanoma): > 100 µM
TGI (SF-295 CNS): > 100 µM
TGI (SK-MEL-2 melanoma): > 100 µM
TGI (MALME-3M melanoma): > 100 µM
TGI (NCI-H226 lung): > 100 µM
TGI (SK-OV-3 ovarian): > 100 µM
TGI (HOP-62 NSCLC): > 100 µM
TGI (UACC-257 melanoma): > 100 µM
TGI (EKVX NSCLC): > 100 µM
TGI (M14 melanoma): > 100 µM
TGI (SK-MEL-5 melanoma): > 100 µM
TGI (MCF7 breast): > 100 µM
TGI (HT29 colon): > 100 µM
TGI (OVCAR-8 ovarian): > 100 µM
TGI (DU-145 prostate): > 100 µM
TGI (HCT-15 colon): > 100 µM
TGI (MDA-N): > 100 µM
TGI (ACHN renal): > 100 µM
TGI (SN12C renal): > 100 µM
TGI (SF-539 CNS): > 100 µM
TGI (PC-3 prostate): > 100 µM
TGI (TK-10 renal): > 100 µM
TGI (HCC-2998 colon): > 100 µM
TGI (UO-31 renal): > 100 µM
TGI (CAKI-1 renal): > 100 µM
TGI (OVCAR-4 ovarian): > 100 µM
TGI (RPMI-8226 leukemia): > 100 µM
TGI (NCI/ADR-RES ovarian): > 100 µM
TGI (786-0 renal): > 100 µM
TGI (SNB-19 CNS): > 100 µM
TGI (BT-549 breast): > 100 µM
TGI (NCI-H23 lung): > 100 µM
TGI (SW-620 colon): > 100 µM
TGI (SNB-75 CNS): > 100 µM
TGI (MOLT-4 leukemia): > 100 µM
TGI (SR leukemia): > 100 µM
TGI (SK-MEL-28 melanoma): > 100 µM
TGI (LOX IMVI melanoma): > 100 µM
TGI (A549 NSCLC): > 100 µM
TGI (SF-268 CNS): > 100 µM
TGI (KM12 colon): > 100 µM
TGI (OVCAR-3 ovarian): > 100 µM
TGI (U251 CNS): > 100 µM
TGI (MDA-MB-435): > 100 µM
TGI (HCT-116 colon): > 100 µM
TGI (RXF 393 renal): > 100 µM
TGI (NCI-H522 lung): > 100 µM

C=CC1(c2ccc(Br)cc2)OCCCO1
TGI (T-47D breast): > 100 µM
TGI (OVCAR-5 ovarian): > 100 µM
TGI (COLO 205 colon): > 100 µM
TGI (UACC-62 melanoma): > 100 µM
TGI (SF-295 CNS): > 100 µM
TGI (HL-60(TB) leukemia): > 100 µM
TGI (SK-MEL-2 melanoma): > 100 µM
TGI (MALME-3M melanoma): > 100 µM
TGI (NCI-H226 lung): > 100 µM
TGI (SK-OV-3 ovarian): > 100 µM
TGI (HOP-62 NSCLC): > 100 µM
TGI (HOP-92 NSCLC): > 100 µM
TGI (UACC-257 melanoma): > 100 µM
TGI (EKVX NSCLC): > 100 µM
TGI (M14 melanoma): > 100 µM
TGI (NCI-H460 lung): > 100 µM
TGI (SK-MEL-5 melanoma): > 100 µM
TGI (MCF7 breast): > 100 µM
TGI (HT29 colon): > 100 µM
TGI (OVCAR-8 ovarian): > 100 µM
TGI (DU-145 prostate): > 100 µM
TGI (MDA-MB-231 breast): > 100 µM
TGI (HCT-15 colon): > 100 µM
TGI (MDA-N): > 100 µM
TGI (ACHN renal): > 100 µM
TGI (SN12C renal): > 100 µM
TGI (SF-539 CNS): > 100 µM
TGI (PC-3 prostate): > 100 µM
TGI (K-562 leukemia): > 100 µM
TGI (TK-10 renal): > 100 µM
TGI (HCC-2998 colon): > 100 µM
TGI (UO-31 renal): > 100 µM
TGI (OVCAR-4 ovarian): > 100 µM
TGI (RPMI-8226 leukemia): > 100 µM
TGI (NCI/ADR-RES ovarian): > 100 µM
TGI (786-0 renal): > 100 µM
TGI (SNB-19 CNS): > 100 µM
TGI (IGROV1 ovarian): > 100 µM
TGI (CCRF-CEM leukemia): > 100 µM
TGI (NCI-H23 lung): > 100 µM
TGI (SW-620 colon): > 100 µM
TGI (SNB-75 CNS): > 100 µM
TGI (MOLT-4 leukemia): > 100 µM
TGI (SR leukemia): > 100 µM
TGI (SK-MEL-28 melanoma): > 100 µM
TGI (LOX IMVI melanoma): > 100 µM
TGI (A549 NSCLC): > 100 µM
TGI (SF-268 CNS): > 100 µM
TGI (KM12 colon): > 100 µM
TGI (OVCAR-3 ovarian): > 100 µM
TGI (U251 CNS): > 100 µM
TGI (MDA-MB-435): > 100 µM
TGI (HCT-116 colon): > 100 µM
TGI (HS 578T breast): > 100 µM
TGI (RXF 393 renal): > 100 µM
TGI (NCI-H522 lung): > 100 µM
